From US20050095606A1, “Partially double-stranded nucleic acids, methods of making, and use thereof” (priority 2001, published 2005) come the findings set out here.

What all share (assay type): cell-based
Common to all, as to details: 6 hours

Assay [1] relates to C-myc. The assay is described as follows: Flow-Thru Chip gene expression analysis after multiplex RT-PCR, MCF-7 cells. The text has this: (§1) MCF-7 cells are estrogen responsive breast adenocarcinoma cells that have been used previously as a model system for evaluation of breast cancer drugs. Initial studies have examined the effect of an anti-estrogen, tamoxifen, on the estradiol response of MCF-7 cells. Estradiol stimulates cell proliferation through the G1 phase in synchronized cell growth studies. Tamoxifen treatment of cells inhibits the induction of several genes that occur upon estradiol treatment by blocking estrogen receptor cofactors required for transcription. The Flow-Thru Chip™has been used as an analysis platform for a set of genes reported in the literature as differentially regulated in the MCF-7 system under estradiol and tamoxifen treatment. TAQMAN® PCR was performed to measure the changes in expression levels for each of the monitored genes across the treatments.
(§2) The experimental protocols for estradiol and tamoxifen treatment have been described in detail elsewhere (Wosikowski et al., Int. J. Cancer 53:290-297 (1993)). In this study MCF-7 (ATTC, Manassas, Va.) cells were maintained in MEM alpha medium supplemented with 10% heat-inactivated fetal bovine serum, Penicillin-Streptomycin and 10 μg/ml bovine insulin (complete medium) (Life Technologies, Gaithersburg, Md.). […] The purity and integrity of the total RNA was assessed by the 260/280 absorbance and the 28s/18s RNA ratios.
(§3) Analysis of genes under test by the Flow-Thru Chip™ required amplification from the total RNA. […] The appropriate number of cycles for each grouping of target nucleic acids was determined empirically to assure that all targets in the group were in the linear dynamic range of the chip and had not reached primer limitation in the PCR amplification. […]
(§4) The ability to multiplex target nucleic acids under study was confirmed by TAQMAN®, analysis of the singleplex and multiplex amplifications. […] Changes in expression level between samples were determined by comparing the brightness of gene-spots measured for each target nucleic acid relative to a reference target nucleic acid, β-actin. […]

The subject of assay [2] is 12 target nucleic acids in MCF-7 cells. The assay is described as follows: Change in expression level of 12 target nucleic acids across cell treatments (Flow-Thru Chip and TAQMAN).
From the text: as §1, §2, §3, §4
On the technique in general: Real-time PCR tracks product formation cycle by cycle.

The test system of assay [3] is C-myc. As to the kind of experiment: TAQMAN PCR gene expression analysis, MCF-7 cells.
From the text: as §1, with “The Flow-Thru Chip™has been used as an analysis platform for a set of genes reported in the literature as differentially regulated in the MCF-7 system under estradiol and tamoxifen treatment.” left out
The experimental protocols for estradiol and tamoxifen treatment have been described in detail elsewhere (Wosikowski et al., Int. J. Cancer 53:290-297 (1993)). […] The purity and integrity of the total RNA was assessed by the 260/280 absorbance and the 28s/18s RNA ratios.
as §4

On to `C[C@]12CC[C@@H]3c4ccc(O)cc4CC[C@H]3[C@@H]1CC[C@@H]2O` [estradiol, 17-beta-estradiol], for which the C-myc fold up-regulation in the assay on C-myc [1] (10 nM 17-beta-estradiol, relative to vehicle control (=1.0), reference β-actin, Flow-Thru Chip) came out at 23±4 fold; in the assay on C-myc [3] (10 nM 17-beta-estradiol, relative to vehicle control (=1.0), reference β-actin, TAQMAN) it was 27±6 fold. Moreover, the “effect on expression of the target nucleic acids” value in assay [2] (10 nM 17-beta-estradiol) is “induces expression”.
For `CC/C(=C(\c1ccccc1)c1ccc(OCCN(C)C)cc1)c1ccccc1` [tamoxifen], in the assay with C-myc [1] (1 μM tamoxifen alone, method not stated), the “influence on C-myc expression” value is “no influence”. Further, the C-myc fold increase result in the assay on C-myc [1] (1 μM tamoxifen in conjunction with 10 nM 17-beta-estradiol, Flow-Thru Chip (same by both methods)) is recorded as “roughly 8 fold”; in the assay with C-myc [3] (1 μM tamoxifen in conjunction with 10 nM 17-beta-estradiol, TAQMAN (same by both methods)), “roughly 8 fold”. Also, in assay [2] (1 μM tamoxifen added to 10 nM 17-beta-estradiol), the “effect on estradiol induction of the set of target nucleic acids” value was “suppresses the induction”. The “influence on expression of any of the target nucleic acids” value in assay [2] (1 μM tamoxifen alone) is on record as “little influence”.
